In the CheMixHub ionic liquid set:

Experiment: xn = mol fraction of the nth substance listed

CCCCCC[n+]1ccn(C)c1.c1nnn[n-]1 + CCCCCCCC[P+](CC)(CC)CC.O=S(=O)([N-]S(=O)(=O)C(F)(F)F)C(F)(F)F
100 kPa
Conditions	viscosity [mPa·s]
278.15 K, x2 = 0.301	990
283.15 K, x2 = 0.597	409
283.15 K, x2 = 0.697	347
288.15 K, x2 = 0.4	414
298.15 K, x2 = 0.597	156
303.15 K, x2 = 0.4	156
303.15 K, x2 = 0.5	129
303.15 K, x2 = 0.899	90
308.15 K, x2 = 0.5	100
308.15 K, x2 = 0.597	93
308.15 K, x2 = 0.697	82
313.15 K, x2 = 0.697	66
318.15 K, x2 = 0.301	77
318.15 K, x2 = 0.4	74
318.15 K, x2 = 0.597	61
323.15 K, x2 = 0.1	86
323.15 K, x2 = 0.5	52

CCCCCCCCCC[n+]1ccn(C)c1.F[B-](F)(F)F + CCCCCCCCn1cc[n+](C)c1.[Br-] + O
298.15 K, 101 kPa
Conditions	electrical conductivity [S/m]
x2 = 0.0007563, x1 = 0.0001261	0.4
x2 = 0.001655, x1 = 0.0002882	0.71
x2 = 0.00196, x1 = 0.0003423	0.81
x2 = 0.002283, x1 = 0.0003963	0.87
x2 = 0.002552, x1 = 0.0004503	0.94
x2 = 0.002857, x1 = 0.0005043	0.99
x2 = 0.003126, x1 = 0.0005583	1.04
x2 = 0.003341, x1 = 0.0005943	1.09
x2 = 0.003645, x1 = 0.0006483	1.14
x2 = 0.003877, x1 = 0.0006843	1.18
x2 = 0.004253, x1 = 0.0007563	1.23
x2 = 0.004574, x1 = 0.0008102	1.28
x2 = 0.004788, x1 = 0.0008462	1.31
x2 = 0.005092, x1 = 0.0009002	1.35
x2 = 0.005359, x1 = 0.0009541	1.4
x2 = 0.005626, x1 = 0.001008	1.43

CCCC[n+]1ccn(C)c1.F[B-](F)(F)F + CCCCCC[n+]1ccn(C)c1.F[B-](F)(F)F
Conditions	viscosity [mPa·s]
305.15 K, 101 kPa, x1 = 1	75.1

CC1CC(=O)O1 (stereo unspecified) + CCCC[n+]1ccn(C)c1.O=S(=O)([N-]S(=O)(=O)C(F)(F)F)C(F)(F)F
electrical conductivity [S/m], 100 kPa, frequency 0.01 MHz
Conditions	293.15 K	298.15 K	303.15 K	308.15 K	313.15 K	318.15 K	323.15 K
x2 = 0.0493	0.874	0.942	1.02	1.1	1.2	1.29	1.38
x2 = 0.1001	1.1	1.22	1.34	1.48	1.62	1.74	1.89
x2 = 0.1526	1.21	1.34	1.49	1.64	1.8	1.94	2.12
x2 = 0.2001	1.2	1.32	1.47	1.62	1.79	1.97	2.16
x2 = 0.3001	1.02	1.15	1.28	1.42	1.58	1.76	1.96
x2 = 0.4013	0.782	0.883	1	1.13	1.26	1.43	1.61
x2 = 0.5004	0.619	0.701	0.804	0.91	1.02	1.16	1.3
x2 = 0.5995	0.505	0.58	0.67	0.754	0.857	0.976	1.1
x2 = 0.6929	0.437	0.504	0.584	0.665	0.758	0.865	0.992
x2 = 0.814	0.39	0.451	0.521	0.592	0.677	0.775	0.886
x2 = 0.9001	0.353	0.417	0.484	0.557	0.645	0.74	0.837

O + CCCCCCCCCCCCCC[n+]1ccccc1.O=C([O-])C(O)c1ccccc1 + CC(C)[C@H](N)C(=O)O
101 kPa, x2 = 0, x3 = 0
Conditions	electrical conductivity [S/m]
293.15 K	0.00012
298.15 K	0.00015
303.15 K	0.00016
308.15 K	0.00017
313.15 K	0.00019

CCCCOCCO + CCCC[n+]1ccn(C)c1.[Br-]
100 kPa, x2 = 0
Conditions	viscosity [mPa·s]
298.15 K	2.79
303.15 K	2.44
308.15 K	2.22
313.15 K	1.98

CCC1COC(=O)O1 (stereo unspecified) + O=S(=O)([N-]S(=O)(=O)C(F)(F)F)C(F)(F)F.[Li+]
298.1 K, 100 kPa, x2 = 0.333
Conditions	electrical conductivity [S/m]	viscosity [mPa·s]
–	0.02	323

O + NCC(=O)O + CCCCCCCCCCCCCCCC[n+]1ccccc1.[Cl-]
Conditions	electrical conductivity [S/m]
308.15 K, 101 kPa, x2 = 0, x3 = 0	6.7e-05

CCCC[n+]1ccn(C)c1.F[B-](F)(F)F + N[C@@H](Cc1c[nH]cn1)C(=O)O + O
viscosity [mPa·s], 100 kPa
Conditions	293.15 K	298.15 K	303.15 K	308.15 K	313.15 K	318.15 K
x2 = 0, x1 = 0.0003603	1.03	0.917	0.835	0.751	0.693	0.638
x2 = 0, x1 = 0.0007203	1.062	0.951	0.868	0.789	0.736	0.681
x2 = 0, x1 = 0.00108	1.093	0.983	0.904	0.83	0.779	0.725
